Reference: US7998965B2, “Glutamate aggrecanase inhibitors” (Wyeth LLC, priority 2005, dated 2011)

What was measured:
[1] = biological target: T1, purified recombinant human Aggrecanase-2 (Ag2t-Phe628-Strep) (Homo sapiens, UniProt Q9UNA0); assay: In vitro fluorescence screen for Aggrecanase-2 inhibitors; format: biochemical; details: Table 3; for IC50: read-out: Agg 2 IC50; for Ki: read-out: Ki Agg2
T1 construct: the form used is denoted as Ag2t-Phe628-Strep (MW=41,737)
T1 sequence (Q9UNA0 262-628): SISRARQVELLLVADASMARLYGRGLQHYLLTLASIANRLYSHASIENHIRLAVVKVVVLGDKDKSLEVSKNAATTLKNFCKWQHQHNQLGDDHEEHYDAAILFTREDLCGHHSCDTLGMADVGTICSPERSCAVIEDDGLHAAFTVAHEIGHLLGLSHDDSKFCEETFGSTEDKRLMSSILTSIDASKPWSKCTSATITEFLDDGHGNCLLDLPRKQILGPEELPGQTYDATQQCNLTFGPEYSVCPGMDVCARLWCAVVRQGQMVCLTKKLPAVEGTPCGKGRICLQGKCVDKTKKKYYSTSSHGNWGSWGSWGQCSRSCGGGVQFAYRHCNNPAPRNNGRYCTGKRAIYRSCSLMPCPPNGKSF

[2] = biological target: T2, purified recombinant human Aggrecanase-1 (rAgg1) (Homo sapiens, UniProt O75173); assay: In vitro fluorescence screen for Aggrecanase-1 inhibitors; format: biochemical; details: Table 3; for IC50: read-out: Agg1 IC50; for Ki: read-out: Ki Agg1
T2 sequence (O75173 213-837): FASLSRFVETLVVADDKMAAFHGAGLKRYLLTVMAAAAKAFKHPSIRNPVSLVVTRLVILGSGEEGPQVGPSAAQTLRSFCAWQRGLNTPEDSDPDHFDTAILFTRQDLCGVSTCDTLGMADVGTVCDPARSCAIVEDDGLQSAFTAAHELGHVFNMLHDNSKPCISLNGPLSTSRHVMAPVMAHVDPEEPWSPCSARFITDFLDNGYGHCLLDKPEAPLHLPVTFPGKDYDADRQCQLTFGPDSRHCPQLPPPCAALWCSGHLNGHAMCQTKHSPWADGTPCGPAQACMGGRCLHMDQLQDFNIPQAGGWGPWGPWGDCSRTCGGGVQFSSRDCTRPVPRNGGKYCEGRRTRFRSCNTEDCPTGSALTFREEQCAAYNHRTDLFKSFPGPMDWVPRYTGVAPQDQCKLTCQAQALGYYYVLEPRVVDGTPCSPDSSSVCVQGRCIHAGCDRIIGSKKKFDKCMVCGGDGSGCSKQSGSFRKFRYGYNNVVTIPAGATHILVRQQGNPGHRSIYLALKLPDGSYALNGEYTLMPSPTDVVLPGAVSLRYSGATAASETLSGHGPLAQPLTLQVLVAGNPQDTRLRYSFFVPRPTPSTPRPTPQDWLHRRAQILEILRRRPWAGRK

SMILES | IC50 [1] [nM] | IC50 [2] [nM] | Ki [1] [nM] | Ki [2] [nM]
CC(C)(Cc1ccc(Cl)cc1)NC(=O)[C@H](CCC(=O)O)NC(=O)c1ccc(-c2ccncc2)s1 [N-[2-(4-chlorophenyl)-1,1-dimethylethyl]-N^2-[(5-pyridin-4-yl-2-thienyl)carbonyl]-L-α-glutamine] | 3400 | 40 |  | 
CC(C)(Cc1ccc(Cl)cc1)NC(=O)[C@H](CCC(=O)O)NC(=O)c1ccc(-c2ccc(Cl)cc2)s1 [N-[2-(4-chlorophenyl)-1,1-dimethylethyl]-N^2-{[5-(4-chlorophenyl)-2-thienyl]carbonyl}-L-α-glutamine] | > 300 | < 30 |  | 
CC(C)(Cc1ccc(Cl)cc1)NC(=O)[C@H](CCC(=O)O)NC(=O)c1ccc(-c2ccc(F)cc2)s1 [N-[2-(4-chlorophenyl)-1,1-dimethylethyl]-N^2-{[5-(4-fluorophenyl)-2-thienyl]carbonyl}-L-α-glutamine] | 30 to 100 | < 30 | 87 | < 3
CC(C)(Cc1ccc(Cl)cc1)NC(=O)[C@H](CCC(=O)O)NC(=O)c1ccc(-c2ccc(Cl)s2)nc1 [N-[2-(4-chlorophenyl)-1,1-dimethylethyl]-N^2-{[6-(5-chloro-2-thienyl)pyridin-3-yl]carbonyl}-L-α-glutamine] | 100 to 300 | 20 to 70 | 526 | 40.6
CC(C)(Cc1ccccc1)NC(=O)[C@H](CCC(=O)O)NC(=O)c1ccc(-c2cccs2)s1 [N^2-(2,2′-bithien-5-ylcarbonyl)-N-(1,1-dimethyl-2-phenylethyl)-L-α-glutamine] | 200 to 600 | < 30 |  | 
CC(C)(Cc1ccc(Cl)cc1)NC(=O)[C@H](CCC(=O)O)NC(=O)c1ccc(-c2cccs2)s1 [N^2-(2,2′-bithien-5-ylcarbonyl)-N-[2-(4-chlorophenyl)-1,1-dimethylethyl]-L-α-glutamine] | 600 to 1800 | < 30 | 1150 | 86
CC(C)(Cc1ccccc1)NC(=O)[C@H](CCC(=O)O)NC(=O)c1cccc(-c2ccc(Cl)s2)c1 [N^2-[3-(5-chloro-2-thienyl)benzoyl]-N-(1,1-dimethyl-2-phenylethyl)-L-α-glutamine] | > 8300 | > 900 |  | 
CC(C)(Cc1ccccc1)NC(=O)[C@H](CCC(=O)O)NC(=O)c1ccc(-c2ccc3c(c2)OCC3)cc1 [N^2-[4-(2,3-dihydro-1-benzofuran-6-yl)benzoyl]-N-(1,1-dimethyl-2-phenylethyl)-L-α-glutamine] | 270 to 800 | 70 |  | 

Next, values leading:

IC50 [1] [nM] | IC50 [2] [nM] | Ki [1] [nM] | Ki [2] [nM] | SMILES
60 to 200 | < 30 | 79 | 3.8 | CC(C)(Cc1ccc(F)cc1)NC(=O)[C@H](CCC(=O)O)NC(=O)c1ccc(-c2ccccc2)s1 [N-[2-(4-fluorophenyl)-1,1-dimethylethyl]-N^2-[(5-phenyl-2-thienyl)carbonyl]-L-α-glutamine]
1000 | 50 |  |  | CC(C)(Cc1ccc(F)cc1)NC(=O)[C@H](CCC(=O)O)NC(=O)c1ccc(-c2ccccc2)nc1 [N-[2-(4-fluorophenyl)-1,1-dimethylethyl]-N^2-[(6-phenylpyridin-3-yl)carbonyl]-L-α-glutamine]
100 to 300 | < 30 | 143 | 6.2 | COc1cccc(-c2ccc(C(=O)N[C@@H](CCC(=O)O)C(=O)NC(C)(C)Cc3ccc(F)cc3)s2)c1 [N-[2-(4-fluorophenyl)-1,1-dimethylethyl]-N^2-{[5-(3-methoxyphenyl)-2-thienyl]carbonyl}-L-α-glutamine]
5200 | 140 |  |  | COc1cccc(-c2ccc(C(=O)N[C@@H](CCC(=O)O)C(=O)NC(C)(C)Cc3ccc(F)cc3)cn2)c1 [N-[2-(4-fluorophenyl)-1,1-dimethylethyl]-N^2-{[6-(3-methoxyphenyl)pyridin-3-yl]carbonyl}-L-α-glutamine]
7400 | 1040 |  |  | CC(C)(Cc1ccc(F)cc1)NC(=O)[C@H](CCC(=O)O)NC(=O)c1ccc(Br)cc1 [N^2-(4-bromobenzoyl)-N-[2-(4-fluorophenyl)-1,1-dimethylethyl]-L-α-glutamine]
